Experiments:
AMARE [1] = experiment: Post-emergence herbicidal action against AMARE; format: in vivo, Amaranthus retroflexus; details: 20 g/ha, visual assessment about 3 weeks after treatment, 100% = plants have died, 0% = like control plants
Summary of the method: (§1)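 A WP or EC formulation diluted in water with 0.2% wetting agent was sprayed at 600 to 800 l/ha onto one-leaf-stage plants grown in sandy loam. About 3 weeks later, action was rated visually in percent, 100% being dead plants.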

MATIN = experiment: Pre-emergence herbicidal action against MATIN; format: in vivo, Matricaria inodora
Summary of the method: (§2)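 Greenhouse pots of sandy loam held seeds covered with soil, onto which the compound was applied before emergence. An aqueous suspension or emulsion of WP or EC was used at 600 to 800 l/ha with 0.2% wetting agent. Percent damage was judged visually at 3 weeks.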

ALOMY [2] = experiment: Pre-emergence herbicidal action against ALOMY; format: in vivo, Alopecurus myosuroides; details: 80 g/ha, pre-emergence, scored visually after 3 weeks vs untreated controls (100% = plants have died, 0% = like control plants)
Summary of the method: as §2

VIOTR [3] = experiment: Post-emergence herbicidal action against VIOTR; format: in vivo, Viola tricolor
Summary of the method: as §1

ECHCG [4] = experiment: Pre-emergence herbicidal action against ECHCG; format: in vivo, Echinochloa crus-galli; details: 80 g/ha
Summary of the method: as §2

POLCO = experiment: Pre-emergence herbicidal action against POLCO; format: in vivo, Polygonum convolvulus; details: dosage 80 g/ha
Text: Seeds of monocotyledonous and dicotyledonous weed plants and crop plants are laid out in sandy loam soil in wood-fiber pots and covered with soil. The compounds of the invention, formulated in the form of wettable powders (WP) or as emulsion concentrates (EC), are then applied to the surface of the covering soil in the form of an aqueous suspension or emulsion at a water application rate equivalent to 600 to 800 l/ha, with addition of 0.2% wetting agent. After the treatment, the pots are placed in a greenhouse and kept under good growth conditions for the trial plants. The damage to the test plants is scored visually after a test period of 3 weeks by comparison with untreated controls (herbicidal activity in percent (%): 100% activity=the plants have died, 0% activity=like control plants). […] The tables below illustrate, in an illustrative manner, the post-emergence herbicidal action of the compounds of the invention, the herbicidal activity being stated in percent.

ABUTH [5] = experiment: Pre-emergence herbicidal action against ABUTH; format: in vivo, Abutilon theophrasti
Summary of the method: as §2

SETVI = experiment: Pre-emergence herbicidal action against SETVI; format: in vivo, Setaria viridis
Summary of the method: as §2

VIOTR [6] = experiment: Pre-emergence herbicidal action against VIOTR; format: in vivo, Viola tricolor; details: dosage 80 g/ha
Summary of the method: as §2

DIGSA = experiment: Pre-emergence herbicidal action against DIGSA; format: in vivo, Digitaria sanguinalis
Summary of the method: as §2

PHBPU [7] = experiment: Pre-emergence herbicidal action against PHBPU; format: in vivo, Pharbitis purpurea; details: dosage 80 g/ha
Summary of the method: as §2

ECHCG [8] = experiment: Post-emergence herbicidal action against ECHCG; format: in vivo, Echinochloa crus-galli; details: dosage 20 g/ha
Summary of the method: as §1

AMARE [9] = experiment: Pre-emergence herbicidal action against AMARE; format: in vivo, Amaranthus retroflexus
Summary of the method: as §2

ABUTH [10] = experiment: Post-emergence herbicidal action against ABUTH; format: in vivo, Abutilon theophrasti; details: visual assessment about 3 weeks after treatment vs untreated controls
Summary of the method: as §1

PHBPU [11] = experiment: Post-emergence herbicidal action against PHBPU; format: in vivo, Pharbitis purpurea; details: dosage 20 g/ha
Summary of the method: as §1

VERPE [12] = experiment: Post-emergence herbicidal action against VERPE; format: in vivo, Veronica persica; details: Veronica persica, 504 h, 20 g/ha
Summary of the method: as §1

ALOMY [13] = experiment: Post-emergence herbicidal action against ALOMY; format: in vivo, Alopecurus myosuroides; details: Alopecurus myosuroides, 504 h, dosage 20 g/ha, visual assessment about 3 weeks after treatment vs untreated controls
Summary of the method: as §1

VERPE [14] = experiment: Pre-emergence herbicidal action against VERPE; format: in vivo, Veronica persica; details: Veronica persica, 504 h, dosage 80 g/ha
Summary of the method: as §2

[15] = 80 g/ha, scored visually after 3 weeks vs untreated controls (100% = plants have died, 0% = like control plants)
[16] = 20 g/ha, scored visually after 3 weeks vs untreated controls, 100% = plants have died, 0% = like control plants

Compound | Post-emergence action at 20 g/ha against AMARE in % (AMARE [1]) | Pre-emergence action against MATIN in % (MATIN; dosage 20 g/ha) | Pre-emergence action against MATIN in % (MATIN; dosage 80 g/ha) | Pre-emergence action against ALOMY (herbicidal activity) (ALOMY [2]) | Pre-emergence action against ECHCG in % (ECHCG [4]) | Pre-emergence action against POLCO in % (POLCO) | Pre-emergence action against SETVI in % (SETVI; dosage 80 g/ha) | Pre-emergence action against VIOTR in % (VIOTR [6]) | Pre-emergence action against DIGSA in % (DIGSA; dosage 80 g/ha) | Pre-emergence action against PHBPU in % (PHBPU [7]) | Post-emergence action against ECHCG in % (ECHCG [8]) | Pre-emergence action against AMARE in % (AMARE [9]; [16]) | Pre-emergence action against AMARE in % (AMARE [9]; [15]) | further results
Cn1nnnc1NC(=O)c1ccc(C(F)(F)F)c(C(=O)NC2CCC2)c1Cl [Example 1-146] | 100% | 100% | 100% | 90% | 100% | 80% | 80% | 100% | 100% | 80% | 80% | 100% | 100% | Post-emergence action against VIOTR in % (VIOTR [3]; 5 g/ha): 80%; Post-emergence action against VIOTR in % (VIOTR [3]; 20 g/ha): 100%; Pre-emergence action against ABUTH (herbicidal activity) (ABUTH [5]; [15]): 100%; Pre-emergence action against ABUTH (herbicidal activity in percent) (ABUTH [5]; dosage 20 g/ha, scored visually after 3 weeks vs untreated controls, 100% = plants have died, 0% = like control plants): 100%; Pre-emergence action against DIGSA in % (DIGSA; dosage 20 g/ha): 100%; Post-emergence action against ABUTH in % (ABUTH [10]; dosage 20 g/ha): 80%
CCn1nnnc1NC(=O)c1ccc(C(F)(F)F)c(C(=O)NCC2CCCO2)c1Cl (stereo not shown) [Example 2-141] | 80% | 80% | 90% | 90% | 80% | 80% | 100% | 90% | 90% | 80% | 80% | 100% | 100% | Post-emergence action against PHBPU in % (PHBPU [11]): 80%; Pre-emergence action against SETVI in % (SETVI; dosage 20 g/ha): 90%
CCNC(=O)c1c(OC)ccc(C(=O)Nc2nnnn2C)c1Cl [Example 1-355] |  |  |  |  |  |  |  |  |  |  |  |  |  | pest or weed control at 20 g/ha (VERPE [12]): 90%; pest or weed control at 20 g/ha (AMARE [1]; Amaranthus retroflexus, 504 h): 100%; pest or weed control at 20 g/ha (MATIN; Tripleurospermum inodorum, 504 h, dosage 20 g/ha): 80%; pest or weed control at 80 g/ha (MATIN; Tripleurospermum inodorum, 504 h, dosage 80 g/ha): 100%; pest or weed control at 80 g/ha (ALOMY [2]; Alopecurus myosuroides, 504 h): 90%; pest or weed control at 20 g/ha (VIOTR [3]; Viola tricolor, 504 h, 20 g/ha): 100%; pest or weed control at 20 g/ha (ALOMY [13]): 80%; pest or weed control at 80 g/ha (POLCO; Fallopia convolvulus, 504 h): 80%; pest or weed control at 80 g/ha (VERPE [14]): 100%; pest or weed control at 20 g/ha (PHBPU [11]; Ipomoea purpurea, 504 h): 80%; pest or weed control at 80 g/ha (ABUTH [5]; Abutilon theophrasti, 504 h, 80 g/ha, scored visually after 3 weeks vs untreated controls (100% = plants have died, 0% = like control plants)): 100%; pest or weed control at 80 g/ha (SETVI; Setaria viridis, 504 h, dosage 80 g/ha): 90%; pest or weed control at 80 g/ha (VIOTR [6]; Viola tricolor, 504 h): 100%; pest or weed control at 20 g/ha (ECHCG [8]; Echinochloa crus-galli, 504 h): 90%; pest or weed control at 20 g/ha (AMARE [9]; Amaranthus retroflexus, 504 h, 20 g/ha, scored visually after 3 weeks vs untreated controls, 100% = plants have died, 0% = like control plants): 100%; pest or weed control at 80 g/ha (AMARE [9]; Amaranthus retroflexus, 504 h, 80 g/ha, scored visually after 3 weeks vs untreated controls, 100% = plants have died, 0% = like control plants): 100%; pest or weed control at 5 g/ha (ABUTH [10]; Abutilon theophrasti, 504 h, dosage 5 g/ha): 80%; pest or weed control at 20 g/ha (ABUTH [10]; Abutilon theophrasti, 504 h, dosage 20 g/ha): 100%
